Measured values: US8940350B2, “Cereal compositions comprising high-potency sweeteners” (The Coca-Cola Company, priority 2005, dated 2015)

Assay: Rate of dissolution in H2O at 25° C. of rebaudioside A polymorph and amorphous forms
Assay type: physicochemical
Conditions: grade in words

Q: With rebaudioside A [Form 4] as the substance, how does the “Rate of dissolution in H2O at 25° C.” value read?
A: High

Q: For rebaudioside A [Form 2], which “Rate of dissolution in H2O at 25° C.” value is on record?
A: Intermediate

Q: For rebaudioside A [Form 3], which “Rate of dissolution in H2O at 25° C.” value is on record?
A: High

Q: With rebaudioside A [Form 1] as the substance, how does the “Rate of dissolution in H2O at 25° C.” value read?
A: Very low
